# Results taken from US20210145801A1, “THERAPY FOR PROTEIN MISFOLDING DISEASE” (WREN THERAPEUTICS LIMITED, priority 2018, published 2021).
# “Also recorded” adds a separate entry of the source.
# Experiments:
# Aβ42 oligomers = biological target: T1, Aβ42 oligomers (Homo sapiens, UniProt P05067); assay: Ca2+ influx assay (lipid vesicle disruption); assay type: biochemical; conditions: 2 μM Aβ42; 5-fold excess added at 0 h; measured at 2 h (half-time)
# T1 construct: made in house; host or cells: E. coli BL21 Gold (DE3)
# Procedure: Single vesicles tethered to PLL-PEG coated borosilicate glass coverslides (VWR International, 22×22 mm, product number 63 1-0122) were placed on an oil immersion objective mounted on an inverted Olympus IX-71 microscope. Each coverslide was affixed at Frame-Seal incubation chambers and was incubated with 50 μL of HEPES buffer of pH 6.5. Just before the imaging, the HEPES buffer was replaced with 50 μL Ca^2+ containing buffer solution L-15. 16 (4×4) images of the coverslide were recorded under three different conditions (background, in the presence of Aβ42 and after addition of ionomycin (Cambridge Bioscience Ltd, Cambridge, UK), respectively). The distance between each field of view was set to 100 μm, and was automated (bean-shell script, Micromanager) to avoid any user bias. After each measurement the script allowed the stage (Prior H117, Rockland, Mass., USA) to move the field of view back to the start position such that identical fields of view could be acquired for the three different conditions. Images of the background were acquired in the presence of L15 buffer. For each field of view 50 images were taken with an exposure time of 50 ms. […] The recorded images were analysed using ImageJ to determine the fluorescence intensity of each spot under the three different conditions in the presence of an aggregation mixture incubated with and without Netoglitazone.
# control animals (N2) = assay: Maximum tolerable dose in control animals; parameters: species or system C. elegans; conditions: in vivo
# Procedure: Briefly, Netoglitazone stocks (5 mM in 100% DMSO) were used at an appropriate concentration to seed 9-cm NGM plates. Plates were then placed in a laminar flow hood at room temperature (22° C.) for up to 4 hours to dry. C. elegans cultures were then transferred onto media seeded with compound as L4 stage or Day 3 for late treatments and incubated at 24° for the whole experiment. Experiments were carried out at different Netoglitazone concentrations ranging from 0.05 to 500 μM in 1% DMSO. As controls, plates seeded only with 1% DMSO were used.
# [1] = system: N2 control (healthy) worms; assay: Automated motility assay in healthy control worms; assay type: in vivo, C. elegans; conditions: same concentration range as in AD worms
# Procedure: Standard conditions were used for the propagation of C. elegans (S. Brenner, The genetics of Caenorhabditis elegans. Genetics. 77, 71-94 (1974)). Briefly, the animals were synchronized by hypochlorite bleaching, hatched overnight in M9 buffer (3 g/l KH2PO4, 6 g/l Na2HPO4, 5 g/l NaCl, […]), and subsequently cultured at 20° C. on nematode growth medium (NGM) (CaCl2) 1 mM, MgSO4 1 mM, cholesterol 5 μg/mL, PBS Buffer (250 μM KH2PO4, 67.5 μM KCl, 3.425 mM of NaCl, pH 6), Agar 17 g/L, NaCl 3 g/1, casein 7.5 g/l) plates seeded with the E. coli strain OP50. […]
# All C. elegans populations were cultured at 20° C. and developmentally synchronized from a 4 h egg-lay. At 64-72 h post-egg-lay (time zero), individuals were transferred to FUDR plates, and body movements were assessed over the times indicated. At different ages, the animals were washed off the plates with M9 buffer and spread over an OP-50 unseeded 9 cm plate, after which their movements were recorded at 20 fps using a recently developed microscopic procedure (M. Perni et al., Massively parallel C. elegans tracking provides multi-dimensional fingerprints for phenotypic discovery. J. Neurosci. Methods. 306, 57-67 (2018)) for 1 min. Up to 600 animals were counted in each experiment in duplicate unless stated otherwise. […]
# T1 sequence (P05067 671-713): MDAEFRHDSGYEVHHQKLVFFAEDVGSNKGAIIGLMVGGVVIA
compound,measurement,setting,value
O=C1NC(=O)C(Cc2ccc3cc(OCc4ccccc4F)ccc3c2)S1 (stereo not drawn) [Netoglitazone],Protection against lipid vesicle disruption by Aβ42 oligomers (Ca2+ influx),Aβ42 oligomers,protected against the neurotoxic species-induced vesicle disruption; also recorded: decreased substantially the toxic effect
same,Maximum tolerable dose in control animals,control animals (N2),< 500 µM
same,Effect on mobility of healthy worms,[1],negligible compared to the observed effect in AD worms
